{
  "source": "patent EP1982730A1",
  "about": "“Pharmaceutical composition comprising l-carnitine and an antagonist of the membrane adenosine receptors, derivatives and/or pharmaceutically acceptable salts thereof, and their use in the preparation of drugs with non-toxic effect to inhibit the proliferation of neoplastic cells” (Farmacetika Limited, priority 2007, dated 2008)",
  "key": {"[1]": {"system": "human peripheral blood mononuclear cells (PBMCs) in healthy volunteers", "conditions": "lymphocytes from healthy volunteers stimulated with PHA; cited from earlier work"}, "[2]": {"system": "peripheral blood mononuclear cells (PBMC) from patients affected by chronic lymphocytic leukemia", "test": "PHA-induced cell blast formation / proliferation (BrdU incorporation ELISA) in ex vivo PBMC cultures", "format": "cell-based, human", "conditions": "for % reduction in cell blast formation: PBMC stimulated with PHA 20 ug/mL", "text": "The protocol for isolation and treatment of cells from patients affected by chronic lymphocytic leukemia comprised the following steps:\n• Blood sample taken between 8:00 and 9:30 a.m.; • Blood sample sent to the laboratory to be processed immediately; • Evaluation of the total volume of the blood received to proceed with 1:2 dilution with sterile saline solution; • Isolation of the mononuclear cells performed by layering of the blood on a Ficoll-Paque Plus density gradient at a ratio of 1:3, ensuring that the two phases remain separate; • Centrifugation for 40 minutes at 1800 rpm at room temperature; • Recovery of the PBMC layers in the interface between the Ficoll and the plasma; • Washing in saline solution to eliminate residual Ficoll centrifuging at 1200 rpm for 7 minutes at 4°C; • Washing in RPM1 1640 medium, centrifuging at 1200 rpm for 7 minutes at 4°C; • Pellet suspension in complete medium, i.e. RPM1 1640 with the addition of L-glutamine 4mM, penicillin at 50U/ml, streptomycin […] and with 10% of FBS (fetal bovine serum); • Preparation of a 10% cell suspension with Trypan Blue dye and counting of cells under the microscope with Burker camera; cell vitality is also checked using the dye exclusion test; • Counting of the total number of cells and adjustment of the cell concentration to the required value.\nThe cells thus isolated were cultured in the complete culture medium, and a culture was prepared placing 1 mL of cell suspension in a 5 mL polypropylene […] (Falcon) to study cytokine expression and production, and 100 microL in each microplate well. To induce cell blast formation, mitogen phytohemagglutinin (PHA) (20 ug/mL (Pharmacia) selective for T-lymphocytes was added.\nThe control culture was prepared without adding any mitogenic substance.\nThe substance to be tested, i.e. L-carnitine and L-carnitine + suramin, at the desired concentration, was added both to cultures with and to those without mitogen. The cultures were incubated in an incubator at 37°C, in a humidified environment with 5% carbon dioxide added.\nEvaluation of cell proliferation and therefore of DNA synthesis by isolated and cultured PBMC was performed after stimulation with mitogen and using the Biotrak ELISA system (Amersham Biosciences Europe GmbH, Milan, Italy), based on the measure of incorporation of 5-bromo-2-deoxyuridine (BrdU), pyrimidine analog, into the newly synthesized DNA. 18 hours before the end of incubation 10 microl of culture medium containing BrdU at a final concentration of 10 micromol/L were added to the cultures. At the end of incubation the culture medium was removed by centrifuging the plates at 300 rpm for 10 minutes. Subsequently, the plates were kept in an oven at 60°C for one hour. This was followed by two incubations of 30 minutes each, first in the presence of a fixative required for cell fixation and DNA denaturation, then in the presence of a blocking buffer. After addition of the anti-BrdU antibody, combined with the enzyme peroxidase, the plates were incubated for 90 minutes, after which three washes of 5 minutes each were performed, using PBS. The substrate used for the colorimetric reaction consisted of 3,3',5,5'-tetramethylbenzidine. The reaction was blocked after 15 minutes with H2SO4 1M and the optical density was measured at a wavelength of 450 nanometers, using a plate reader spectrophotometer. The PBMC proliferation values in the different wells were expressed as optical density from which the optical density recorded in the control wells without BrdU was subtracted."}},
  "data": [
    {"smiles": "C[N+](C)(C)C[C@H](O)CC(=O)[O-]", "note": "[Carnitine, L-carnitine]", "values": [
      {"measurement": "blastogenesis of T lymphocytes caused by phytohemagglutinin (PHA)", "setting": "[1]", "value": "inhibits, in a dose-dependent manner"},
      {"measurement": "% reduction in cell blast formation", "setting": "[2]; Patient 1, I.S. 1.9", "value": 30, "unit": "%"},
      {"measurement": "% reduction in cell blast formation", "setting": "[2]; Patient 2, I.S. 3.4", "value": 65, "unit": "%"},
      {"measurement": "% reduction in cell blast formation", "setting": "[2]; Patient 3, I.S. 4.4", "value": 40, "unit": "%"},
      {"measurement": "% reduction in cell blast formation", "setting": "[2]; Patient 4, I.S. 1.6", "value": 24.4, "unit": "%"},
      {"measurement": "% reduction in cell blast formation", "setting": "[2]; Patient 5, I.S. 2.3", "value": 16.5, "unit": "%"},
      {"measurement": "proliferation induced with PHA", "setting": "[2]; all patients, summary in words", "value": "reduces the proliferation induced with PHA in all patients"}
    ]}
  ]
}
